Three molecules from patent publication US9708293B2, “N-(pyridin-2-yl)pyrimidin-4-amine derivatives containing a sulfone group” (BAYER PHARMA AKTIENGESELLSCHAFT, priority 2012, dated 2017) can be followed below.

pIC50: −log10 of the molar value.

One data set concerns DU145 cells. The data set can be described thus: Proliferation assay, DU145. Type of data set: cell-based. To be noted: Homo sapiens, DU-145, 96 h; 4 days, crystal violet; read-out: Inhibition of DU145 cell proliferation IC50. How it is done:
Cultivated tumour cells (HeLa, human cervical tumour cells, ATCC CCL-2; NCI-H460, human non-small cell lung carcinoma cells, ATCC HTB-177; A2780, human ovarian carcinoma cells, ECACC #93112519; DU 145, hormone-independent human prostate carcinoma cells, ATCC HTB-81; HeLa-MaTu-ADR, multidrug-resistant human cervical carcinoma cells, EPO-GmbH Berlin; Caco-2, human colorectal carcinoma cells, ATCC HTB-37; B16F10, mouse melanoma cells, ATCC CRL-6475) were plated at a density of 5,000 cells/well (DU145, HeLa-MaTu-ADR), 3,000 cells/well (NCI-H460, HeLa), 2,500 cells/well (A2780), 1,500 cells/well (Caco-2), or 1,000 cells/well (B16F10) in a 96-well multititer plate in 200 μL of their respective growth medium supplemented 10% fetal calf serum. After 24 hours, the cells of one plate (zero-point plate) were stained with crystal violet (see below), while the medium of the other plates was replaced by fresh culture medium (200 μl), to which the test substances were added in various concentrations (0 μM, as well as in the range of 0.001-10 μM; the final concentration of the solvent dimethyl sulfoxide was 0.5%). The cells were incubated for 4 days in the presence of test substances. Cell proliferation was determined by staining the cells with crystal violet: the cells were fixed by adding 20 μl/measuring point of an 11% glutaric aldehyde solution for 15 minutes at room temperature. After three washing cycles of the fixed cells with water, the plates were dried at room temperature. The cells were stained by adding 100 μl/measuring point of a 0.1% crystal violet solution (pH 3.0). After three washing cycles of the stained cells with water, the plates were dried at room temperature. The dye was dissolved by adding 100 μl/measuring point of a 10% acetic acid solution. The extinction was determined by photometry at a wavelength of 595 nm. The change of cell number, in percent, was calculated by normalization of the measured values to the extinction values of the zero-point plate (=0%) and the extinction of the untreated (0 μm) cells (=100%). […]

For another data set, the system named is MOLM13 cells. The data set can be described thus: Proliferation assay, MOLM-13. To be noted: Homo sapiens, 72-hour exposure, Cell Titre-Glo, read-out: Inhibition of MOLM13 cell proliferation IC50. In kind it is cell-based. How it is done: Non-adherent MOLM-13 human acute myeloid leukemia cells (DSMZ ACC 554) were seeded at a density of 5,000 cells/well in a 96-well multititer plate in 100 μL of growth medium supplemented 10% fetal calf serum. After 24 hours, cell viability of one plate (zero-point plate) was determined with the Cell Titre-Glo Luminescent Cell Viability Assay (Promega), while 50 μL of test compound containing medium was added to the wells of the other plates (final concentrations in the range of 0.001-10 μM and DMSO controls; the final concentration of the solvent dimethyl sulfoxide was 0.5%). Cell viability was assessed after 72-hour exposure with the Cell Titre-Glo Luminescent Cell Viability Assay (Promega). IC50 values (inhibitory concentration at 50% of maximal effect) were determined by means of a 4 parameter fit on measurement data which were normalized to vehicle (DMSO) treated cells (=100%) and measurement readings taken immediately before compound exposure (=0%).

The next data set deals with A2780 cells. The data set can be described thus: Proliferation assay, A2780. Type of data set: cell-based. To be noted: Homo sapiens, A2780, 96 h; 4 days, crystal violet; read-out: Inhibition of A2780 cell proliferation IC50. How it is done:
Cultivated tumour cells (HeLa, human cervical tumour cells, ATCC CCL-2; NCI-H460, human non-small cell lung carcinoma cells, ATCC HTB-177; A2780, human ovarian carcinoma cells, ECACC #93112519; DU 145, hormone-independent human prostate carcinoma cells, ATCC HTB-81; HeLa-MaTu-ADR, multidrug-resistant human cervical carcinoma cells, EPO-GmbH Berlin; Caco-2, human colorectal carcinoma cells, ATCC HTB-37; B16F10, mouse melanoma cells, ATCC CRL-6475) were plated at a density of 5,000 cells/well (DU145, HeLa-MaTu-ADR), 3,000 cells/well (NCI-H460, HeLa), 2,500 cells/well (A2780), 1,500 cells/well (Caco-2), or 1,000 cells/well (B16F10) in a 96-well multititer plate in 200 μL of their respective growth medium supplemented 10% fetal calf serum. […] Cell proliferation was determined by staining the cells with crystal violet: the cells were fixed by adding 20 μl/measuring point of an 11% glutaric aldehyde solution for 15 minutes at room temperature. […] The extinction was determined by photometry at a wavelength of 595 nm. The change of cell number, in percent, was calculated by normalization of the measured values to the extinction values of the zero-point plate (=0%) and the extinction of the untreated (0 μm) cells (=100%). […]

The nature of the next data set: Caco-2 permeation assay. In kind it is in vitro ADME. To be noted: human, pH 7.2, Caco-2, test compound 2 μM. The protocol:
4. Caco-2 Permeation Assay:
Caco-2 cells (purchased from DSMZ Braunschweig, Germany) were seeded at a density of 4.5×10^4 cells per well on 24 well insert plates, 0.4 μm pore size, and grown for 15 days in DMEM medium supplemented with 10% fetal bovine serum, 1% GlutaMAX (100x, GIBCO), 100 U/mL penicillin, 100 μg/mL streptomycin (GIBCO) and 1% non essential amino acids (100×). Cells were maintained at 37° C. in a humified 5% CO2 atmosphere. Medium was changed every 2-3 day. Before running the permeation assay, the culture medium was replaced by a FCS-free hepes-carbonate transport buffer (pH 7.2). For assessment of monolayer integrity the transepithelial electrical resistance (TEER) was measured. Test compounds were predissolved in DMSO and added either to the apical or basolateral compartment in final concentration of 2 μM in transport buffer. Before and after 2h incubation at 37° C. samples were taken from both compartments. Analysis of compound content was done after precipitation with methanol by LC/MS/MS analysis. Permeability (Papp) was calculated in the apical to basolateral (A →B) and basolateral to apical (B→A) directions. The apparent permeability was calculated using following equation: Papp=(Vr/Po)(1/S)(P2/t)
Where Vr is the volume of medium in the receiver chamber, Po is the measured peak area or height of the test drug in the donor chamber at t=o, S the surface area of the monolayer, P2 is the measured peak area of the test drug in the acceptor chamber after 2h of incubation, and t is the incubation time. The efflux ratio basolateral (B) to apical (A) was calculated by dividing the Papp B-A by the Papp A-B. In addition the compound recovery was calculated. The following reference compounds were used for the classification of the permeability class: Antipyrine, Pyrazosin, Verapamil, Fluvastatin, Cimetidine, Ranitidine, Atenolol, Sulfasalazine.
For orientation: Caco-2 monolayers are a common model of the intestinal barrier.

Take `COc1cc(F)ccc1-c1cc(Nc2cc(CS(C)(=O)=O)cc(C(F)(F)F)n2)ncn1` [Example 3, 6-(4-Fluoro-2-methoxyphenyl)-N-{4-[(methylsulfonyl)methyl]-6-(trifluoromethyl)pyridin-2-yl}pyrimidin-4-amine]: the pIC50 with DU145 cells is 7.47; in the data set on MOLM13 cells, 7.74; with A2780 cells, 7.85.

For `COc1cc(F)ccc1-c1cc(Nc2cc(CS(C)(=O)=O)cc(C)n2)ncn1` [Example 2, 6-(4-Fluoro-2-methoxyphenyl)-N-{6-methyl-4-[(methylsulfonyl)methyl]pyridin-2-yl}pyrimidin-4-amine], the pIC50 in the data set with DU145 cells is 7.12.

As to `COc1cc(F)ccc1-c1cc(Nc2cc(CS(C)(=O)=O)ccn2)ncn1` [Example 1, 6-(4-Fluoro-2-methoxyphenyl)-N-{4-[(methylsulfonyl)methyl]pyridin-2-yl}pyrimidin-4-amine], the Papp A→B (in general, how fast a substance crosses the layer from the apical side) at 2 h, 2 μM in the data set “Caco-2 permeation assay” (2h incubation, apical to basolateral, read-out: Papp A-B (Mari)) stood at 17.8 ×10⁻⁶ cm/s. The apparent permeability from basolateral to apical (Papp B→A) – broadly, the apparent permeability from the basolateral to the apical side of a cell layer – at 2 h, 2 μM in “Caco-2 permeation assay” (2h incubation, basolateral to apical, read-out: Papp B-A (Mari)) worked out at 19.1 ×10⁻⁶ cm/s. Also, the efflux ratio (as a rule, the permeability from basolateral to apical divided by that in the opposite direction, in the common usage) at 2 h, 2 μM in the data set “Caco-2 permeation assay” (Papp B-A / Papp A-B) was 1.1. Also, the figures for the pIC50 in the data set on DU145 cells and in the data set on A2780 cells were 6.71 and 7.19, respectively.
